# Laboratory results from ChEMBL document CHEMBL4339201, “A survey of core replacements in indole-based HIV-1 attachment inhibitors” (Bioorg Med Chem Lett, 2019).
# Assays:
# [1] = Cytotoxicity against human MT2 cells assessed as decrease in cell viability; format: cell-based
# [2] = test system: Human immunodeficiency virus 1; assay: Antiviral activity against ENV pseudotyped HIV1 […] infected in human HeLa67 cells expressing CD4/CCR5[…] after 72 hrs by luciferase reporter gene assay; format: functional, organism-based; conditions: Human immunodeficiency virus 1, HeLa67, 72 h
structure (smiles),measurement,setting,value
O=C(C(=O)N1CCN(C(=O)c2ccccc2)CC1)c1c[nH]c2ccccc12,CC50,[1],339000 nM
COc1ccc2[nH]c(C(=O)C(=O)N3CCN(C(=O)c4ccccc4)CC3C)cc2c1 (stereo not given),EC50,[2],> 5000 nM
same,CC50,[1],33000 nM
O=C(C(=O)N1CCN(C(=O)c2ccccc2)CC1)c1ccc2nccnc2c1,EC50,[2],3610 nM
same,CC50,[1],> 300000 nM
O=C(C(=O)N1CCN(C(=O)c2ccccc2)CC1)c1csc2ccccc12,EC50,[2],764 nM
same,CC50,[1],141000 nM
C[C@@H]1CN(C(=O)c2ccccc2)CCN1C(=O)C(=O)c1nc2ccccc2n1C,EC50,[2],12 nM
same,CC50,[1],> 300000 nM
C[C@@H]1CN(C(=O)c2ccccc2)CCN1C(=O)C(=O)c1ccc2ccccc2n1,EC50,[2],0.7 nM
same,CC50,[1],198000 nM
O=C(C(=O)N1CCN(C(=O)c2ccccc2)CC1)c1cnc2ccccc2n1,EC50,[2],108 nM
same,CC50,[1],> 300000 nM
C[C@@H]1CN(C(=O)c2ccccc2)CCN1C(=O)C(=O)c1cc2sccc2[nH]1,EC50,[2],2320 nM
same,CC50,[1],106000 nM
C[C@@H]1CN(C(=O)c2ccccc2)CCN1C(=O)C(=O)c1cc2sccc2s1,EC50,[2],358 nM
same,CC50,[1],> 300000 nM
O=C(C(=O)N1CCN(C(=O)c2ccccc2)CC1)c1cc2ccccc2[nH]1,EC50,[2],561 nM
same,CC50,[1],> 300000 nM
O=C(C(=O)N1CCN(C(=O)c2ccccc2)CC1)c1cn2c(n1)sc1ccccc12,EC50,[2],52 nM
same,CC50,[1],> 300000 nM
CC1CN(C(=O)c2ccccc2)CCN1C(=O)C(=O)c1ccc2c(O)cccc2n1 (stereo not given),EC50,[2],0.4 nM
same,CC50,[1],195000 nM
C[C@@H]1CN(C(=O)c2ccccc2)CCN1C(=O)C(=O)c1ccc2scnc2c1,EC50,[2],86 nM
same,CC50,[1],> 300000 nM
O=C(C(=O)N1CCN(C(=O)c2ccccc2)CC1)c1nc2ccccc2o1,EC50,[2],> 5000 nM
same,CC50,[1],> 300000 nM
O=C(C(=O)N1CCN(C(=O)c2ccccc2)CC1)c1cnn2ccccc12,EC50,[2],> 5000 nM
same,CC50,[1],> 300000 nM
C[C@H]1CN(C(=O)c2ccccc2)CCN1C(=O)C(=O)c1cnc2ccccc2n1,EC50,[2],26 nM
same,CC50,[1],114000 nM
COc1ccc2cc(C(=O)C(=O)N3CCN(C(=O)c4ccccc4)C[C@H]3C)ccc2c1,EC50,[2],0.1 nM
same,CC50,[1],41000 nM
O=C(C(=O)N1CCN(C(=O)c2ccccc2)CC1)c1cc2ccccc2cn1,EC50,[2],182 nM
same,CC50,[1],> 300000 nM
C[C@@H]1CN(C(=O)c2ccccc2)CCN1C(=O)C(=O)c1c[nH]c2c1ccc1cccnc12,EC50,[2],17 nM
same,CC50,[1],45000 nM
C[C@@H]1CN(C(=O)c2ccccc2)CCN1C(=O)C(=O)c1ccc2cc(C(N)=O)ccc2c1,EC50,[2],11.9 nM
same,CC50,[1],189000 nM
C[C@@H]1CN(C(=O)c2ccccc2)CCN1C(=O)C(=O)c1ccc2cc(-c3nccs3)ccc2c1,EC50,[2],0.03 nM
O=C(C(=O)N1CCN(C(=O)c2ccccc2)CC1)c1nc2ccccc2[nH]1,EC50,[2],2460 nM
same,CC50,[1],> 300000 nM
CC1CN(C(=O)c2ccccc2)CCN1C(=O)C(=O)c1nsc2ccccc12 (stereo not given),EC50,[2],734 nM
same,CC50,[1],75000 nM
C[C@H]1CN(C(=O)c2ccccc2)CCN1C(=O)C(=O)c1ccc2ccccc2n1,EC50,[2],4.4 nM
same,CC50,[1],166000 nM
C[C@@H]1CN(C(=O)c2ccccc2)CCN1C(=O)C(=O)c1ccc2cc(C(=N)NO)ccc2c1,EC50,[2],0.16 nM
same,CC50,[1],234000 nM
O=C(C(=O)N1CCN(C(=O)c2ccccc2)CC1)c1cc2ccccc2s1,EC50,[2],2840 nM
same,CC50,[1],9000 nM
O=C(C(=O)N1CCN(C(=O)c2ccccc2)CC1)c1ccc2cnccc2n1,EC50,[2],137 nM
same,CC50,[1],> 300000 nM
C[C@@H]1CN(C(=O)c2ccccc2)CCN1C(=O)C(=O)c1ccc2cc(C#N)ccc2c1,EC50,[2],30 nM
same,CC50,[1],102000 nM
O=C(C(=O)N1CCN(C(=O)c2ccccc2)CC1)c1ccc2ccccc2n1,EC50,[2],13 nM
same,CC50,[1],> 300000 nM
C[C@@H]1CN(C(=O)c2ccccc2)CCN1C(=O)C(=O)c1cc2cccn2cn1,EC50,[2],407 nM
same,CC50,[1],> 300000 nM
C[C@@H]1CN(C(=O)c2ccccc2)CCN1C(=O)C(=O)c1ccc2cc(Br)ccc2c1,EC50,[2],1.3 nM
same,CC50,[1],301000 nM
COc1ccc2nc(C(=O)C(=O)N3CCN(C(=O)c4ccccc4)C[C@H]3C)sc2c1,EC50,[2],2.6 nM
same,CC50,[1],151000 nM
COc1cccc2nc(C(=O)C(=O)N3CCN(C(=O)c4ccccc4)CC3C)ccc12 (stereo not given),EC50,[2],2.9 nM
same,CC50,[1],200000 nM
C[C@@H]1CN(C(=O)c2ccccc2)CCN1C(=O)C(=O)c1cn2c(n1)sc1ccccc12,EC50,[2],11 nM
same,CC50,[1],> 300000 nM
O=C(C(=O)N1CCN(C(=O)c2ccccc2)CC1)c1ccc2[nH]ccc2c1,EC50,[2],255 nM
same,CC50,[1],> 250000 nM
O=C(C(=O)N1CCN(C(=O)c2ccccc2)CC1)c1ccc2ccccc2c1,EC50,[2],135 nM
same,CC50,[1],94000 nM
C[C@@H]1CN(C(=O)c2ccccc2)CCN1C(=O)C(=O)c1ccc2cc(C(=O)O)ccc2c1,EC50,[2],27 nM
same,CC50,[1],> 300000 nM
O=C(C(=O)N1CCN(C(=O)c2ccccc2)CC1)c1ccc2cccnc2n1,EC50,[2],> 5000 nM
same,CC50,[1],> 300000 nM
C[C@@H]1CN(C(=O)c2ccccc2)CCN1C(=O)C(=O)c1nc2ccccc2[nH]1,EC50,[2],798 nM
same,CC50,[1],> 300000 nM
CC1CN(C(=O)c2ccccc2)CCN1C(=O)C(=O)c1ccc2ccccc2n1 (stereo not given),EC50,[2],1.2 nM
same,CC50,[1],266000 nM
CC1CN(C(=O)c2ccccc2)CCN1C(=O)C(=O)c1ccc2cc(Br)ccc2n1 (stereo not given),EC50,[2],1.7 nM
same,CC50,[1],134000 nM
CC1CN(C(=O)c2ccccc2)CCN1C(=O)C(=O)c1ccc2cc(O)ccc2n1 (stereo not given),EC50,[2],0.2 nM
same,CC50,[1],210000 nM
CC1CN(C(=O)c2ccccc2)CCN1C(=O)C(=O)c1cnc2ccccn12 (stereo not given),EC50,[2],> 5000 nM
same,CC50,[1],> 300000 nM
O=C(C(=O)N1CCN(C(=O)c2ccccc2)CC1)c1cccc2ccccc12,EC50,[2],355 nM
same,CC50,[1],> 300000 nM
C[C@@H]1CN(C(=O)c2ccccc2)CCN1C(=O)C(=O)c1ccc2ccccc2c1,EC50,[2],2.4 nM
same,CC50,[1],171000 nM
C[C@@H]1CN(C(=O)c2ccccc2)CCN1C(=O)C(=O)c1ccc2[nH]nnc2c1,EC50,[2],3060 nM
same,CC50,[1],> 300000 nM
CC1CN(C(=O)c2ccccc2)CCN1C(=O)C(=O)c1cnc2ncccn12 (stereo not given),EC50,[2],> 5000 nM
same,CC50,[1],> 300000 nM
COc1cc(OC)c2cc(C(=O)C(=O)N3CCN(C(=O)c4ccccc4)CC3C)[nH]c2c1 (stereo not given),EC50,[2],> 5000 nM
same,CC50,[1],68000 nM
COc1ccc2nc(C(=O)C(=O)N3CCN(C(=O)c4ccccc4)CC3C)ccc2c1 (stereo not given),EC50,[2],0.2 nM
same,CC50,[1],184000 nM
O=C(C(=O)N1CCN(C(=O)c2ccccc2)CC1)c1ccc2cccnc2c1,EC50,[2],2860 nM
same,CC50,[1],> 300000 nM
C[C@@H]1CN(C(=O)c2ccccc2)CCN1C(=O)C(=O)c1nc2ccccc2s1,EC50,[2],34 nM
same,CC50,[1],> 230000 nM
CC1CN(C(=O)c2ccccc2)CCN1C(=O)C(=O)c1ccc2cc(F)ccc2n1 (stereo not given),EC50,[2],5.9 nM
same,CC50,[1],258000 nM
CC1CN(C(=O)c2ccccc2)CCN1C(=O)C(=O)c1cccc2cc[nH]c12 (stereo not given),EC50,[2],1010 nM
same,CC50,[1],212000 nM
COc1cc(C(=O)C(=O)N2CCN(C(=O)c3ccccc3)C[C@H]2C)nc2ccccc12,EC50,[2],56 nM
same,CC50,[1],96000 nM
COc1ccc2cc(C(=O)C(=O)N3CCN(C(=O)c4ccccc4)CC3C)[nH]c2c1 (stereo not given),EC50,[2],4.8 nM
same,CC50,[1],27000 nM
C[C@@H]1CN(C(=O)c2ccccc2)CCN1C(=O)C(=O)c1n[nH]c2ccccc12,EC50,[2],655 nM
same,CC50,[1],> 300000 nM
C[C@@H]1CN(C(=O)c2ccccc2)CCN1C(=O)C(=O)c1cnc2ccccc2n1,EC50,[2],4.6 nM
same,CC50,[1],> 300000 nM
C[C@@H]1CN(C(=O)c2ccccc2)CCN1C(=O)C(=O)c1c[nH]c2ccccc12,EC50,[2],4 nM
same,CC50,[1],200000 nM
C[C@@H]1CN(C(=O)c2ccccc2)CCN1C(=O)C(=O)c1cc2ccccc2[nH]1,EC50,[2],219 nM
